Assay results as given in article PMC7024302, “Ultrashort Cationic Lipopeptides–Effect of N-Terminal Amino Acid and Fatty Acid Type on Antimicrobial Activity and Hemolysis” (Molecules, 2020).
Converted amounts (≈) assume the structure as drawn. Residues, ends and D or L forms follow the SMILES beside them.

Columns and labels:
E. faecium ATCC 700221 = format: cell-based, Enterococcus faecium; details: ATCC 700221, 18 h
Source text: (§1) The Acinetobacter baumannii ATCC BAA-1605, Candida albicans ATCC 10231, Enterococcus faecium ATCC 700221, Klebsiella aerogenes ATCC 13048 (previously known as Enterobacter aerogenes), Klebsiella pneumoniae ATCC 700603, Pseudomonas aeruginosa ATCC 9027, Staphylococcus aureus ATCC 25923 and MRSA ATCC 33591, were acquired from the American Type Culture Collection (ATCC). Before running the tests, beads with cryo-protected microorganisms were transferred into fresh MHB (BioMaxima, Lublin, Poland) for bacteria or RPMI-1640 for fungi and incubated for 24 h at 37 °C. Then, the culture was seeded on the Mueller-Hinton agar (MHA) plates (BioMaxima, Lublin, Poland) for bacteria or Sabouraud dextrose agar (SDA) plates (BioMaxima, Lublin, Poland) for fungi and incubated as just mentioned. Cell densities for all assays were adjusted spectrophotometrically (Multiskan™ GO Microplate Spectrophotometer, Thermo Fisher Scientific, Vantaa, Finland) at 600 nm for bacteria and at 530 nm for fungi.
(§2) The MICs were determined by broth microdilution method according to the Clinical and Laboratory Standard Institute guidelines. For this purpose initial inoculums of bacteria (5 × 10^5 CFU/mL) in MHB (BioMaxima, Lublin, Poland) and fungi (2 × 10^3 CFU/mL) in RPMI-1640 with 2% D-glucose (Merck, Darmstadt, Germany) prepared with MOPS (pH 7.0 ± 0.1 at 25 °C; Merck, Darmstadt, Germany) were exposed to the ranging concentration of lipopeptides (0.5–256 µg/mL) and incubated at 37 °C for 18 h and 24 h respectively. The experiments were conducted on 96-well microtiter polystyrene plates (Kartell, Italy). The MIC was taken as the lowest peptide concentration at which a noticeable growth of microorganisms was inhibited. All experiments were conducted in triplicate.

K. aerogenes ATCC 13048 = format: cell-based, Klebsiella aerogenes; details: ATCC 13048, 18 h
Source text: as §1, §2

[1] = Determination of peptide hydrophobicity with RP-HPLC (adjusted retention time); format: physicochemical; details: for tR’ (adjusted retention time): Table 1 and b9, measure of hydrophobicity, RP-HPLC, Phenomenex Luna C18(2) 3.0 × 100 mm, 5 µm, linear 10–55% acetonitrile in water over 60 min, 0.5 mL/min, peptide 1 g/L; for tR’ (adjusted retention time) / tR’: 0.1% TFA, 25.0 °C, UV 214 nm, triplicate; for tR’: Table 3, adjusted retention time as hydrophobicity, RP-HPLC C18, linear 10–55% acetonitrile over 60 min
Procedure: To determine peptide hydrophobicity, the Waters Alliance e2695 system with a Waters 2998 PDA Detector (software-Empower®3) was used. All analyses were carried out on a Phenomenex Luna C18(2) column (3.0 × 100 mm, 5 µm particle size, 100 Å pore size). The peptides were dissolved in water (0.1% TFA, v/v) to obtain a concentration of 1 g/L. UV detection at 214 nm was used, and aliquots (10 µL) were eluted with a linear 10–55% acetonitrile gradient in deionized water over 60 min at 25.0 ± 0.1 °C. The mobile phase flow rate was 0.5 mL/min. Both eluents contained 0.1% (v/v) of TFA. Each peptide sample was analyzed in triplicate.

[2] = test system: K. pneumoniae ATCC 700603; format: cell-based, Klebsiella pneumoniae; details: ATCC 700603, 18 h
Source text: as §1, §2

[3] = test system: human red blood cells (hRBCs); format: cell-based; details: red cells of human, 1 h
Procedure: The hemolysis assay was performed as described earlier according to the method of Avrahami and Shai. Fresh human red blood cells (hRBCs) with anticoagulant (EDTA) were rinsed three times with a PBS (Merck, Darmstadt, Germany) by centrifugation at 800× g for 10 min and resuspended in PBS. Lipopeptides were serially diluted on 96-well microtiter polystyrene plate and hRBCs were added to reach final volume of 100 µL. Peptide concentration ranged between 0.5 and 256 µg/mL and final hRBCs concentration was 4% (v/v). Controls for zero hemolysis (blank) and 100% hemolysis consisted of hRBCs suspended in PBS and 1% of Triton-X 100 (Merck, Darmstadt, Germany), respectively. The plate was incubated for 1 h at 37 °C and then centrifuged (800× g, 10 min, 4 °C). Subsequently, supernatant was […] to new microtiter plates and absorbance at 540 nm were measured. All experiments were conducted in triplicate. Protocol of the study received approval from the local Bioethics Committee at the Medical University of Gdańsk (NKBBN/262/2019).

[4] = test system: S. aureus ATCC 33591 (MRSA); format: cell-based, Staphylococcus aureus; details: ATCC 33591, 18 h
Source text: as §1, §2

S. aureus ATCC 25923 = format: cell-based, Staphylococcus aureus; details: ATCC 25923, 18 h
Source text: as §1, §2

[5] = test system: A. baumannii ATCC BAA-1605; format: cell-based, Acinetobacter baumannii; details: ATCC BAA-1605, 18 h
Source text: as §1, §2

P. aeruginosa ATCC 9027 = format: cell-based, Pseudomonas aeruginosa; details: ATCC 9027, 18 h
Source text: as §1, §2

C. albicans ATCC 10231 = format: cell-based, Candida albicans; details: ATCC 10231, 24 h, pH 7
Source text: as §1, §2

CCCCCCCCCCCC(=O)N[C@@H](Cc1ccccc1)C(=O)N[C@@H](CCCNC(=N)N)C(=O)N[C@@H](CCCNC(=N)N)C(N)=O [compound 25, C12-FRR-NH2] (HELM PEPTIDE1{[CCCCCCCCCCCC(=O)[*:2]].F.R.R.[am]}$$$$V2.0)
MIC E1 (E. faecium ATCC 700221): 8 µg/mL (≈ 12.1 µM)
MIC E2 (K. aerogenes ATCC 13048): 256 µg/mL (≈ 389 µM)
tR’ (adjusted retention time) [1]: 41.45 min
tR’ [1]: 41.45 min
∆tR ([1]; tR’ of the lipopeptide minus tR’ of C10-RR-NH2 or C12-RR-NH2, same RP-HPLC conditions): 8.87 min
MIC K [2]: 256 µg/mL (≈ 389 µM)
HC50 [3]: 91.21 (±16.38) µg/mL
MIC S [4]: 8 µg/mL (≈ 12.1 µM)
MIC SA (S. aureus ATCC 25923): 4 µg/mL (≈ 6.07 µM)
MIC A [5]: 64 µg/mL (≈ 97.1 µM)
MIC PA (P. aeruginosa ATCC 9027): 8 µg/mL (≈ 12.1 µM)
MIC CA (C. albicans ATCC 10231): 8 µg/mL (≈ 12.1 µM)

CCCCCCCCCCCCCC(=O)N[C@@H](CCC)C(=O)N[C@@H](CCCNC(=N)N)C(=O)N[C@@H](CCCNC(=N)N)C(N)=O [compound 70, C14-NvaRR-NH2] (HELM PEPTIDE1{[CCCCCCCCCCCCCC(=O)[*:2]].[Nva].R.R.[am]}$$$$V2.0)
MIC E1 (E. faecium ATCC 700221): 4 µg/mL (≈ 6.26 µM)
MIC E2 (K. aerogenes ATCC 13048): 128 µg/mL (≈ 200 µM)
tR’ [1]: 44.53 min
MIC K [2]: 128 µg/mL (≈ 200 µM)
HC50 [3]: 42.04 (±1.38) µg/mL
MIC S [4]: 4 µg/mL (≈ 6.26 µM)
MIC SA (S. aureus ATCC 25923): 4 µg/mL (≈ 6.26 µM)
MIC A [5]: 64 µg/mL (≈ 100 µM)
MIC PA (P. aeruginosa ATCC 9027): 8 µg/mL (≈ 12.5 µM)
MIC CA (C. albicans ATCC 10231): 4 µg/mL (≈ 6.26 µM)

CCCCCCCCCCCCCC(=O)N[C@@H](CCCNC(=N)N)C(=O)N[C@@H](CCCNC(=N)N)C(N)=O [compound 4, C14-RR-NH2, reference compound] (HELM PEPTIDE1{[CCCCCCCCCCCCCC(=O)[*:2]].R.R.[am]}$$$$V2.0)
MIC E1 (E. faecium ATCC 700221): 8 µg/mL (≈ 14.8 µM)
MIC E2 (K. aerogenes ATCC 13048): 256 µg/mL (≈ 474 µM)
tR’ [1]: 39.79 min
MIC K [2]: 256 µg/mL (≈ 474 µM)
HC50 [3]: 68.43 (±1.41) µg/mL
MIC S [4]: 8 µg/mL (≈ 14.8 µM)
MIC SA (S. aureus ATCC 25923): 8 µg/mL (≈ 14.8 µM)
MIC A [5]: 64 µg/mL (≈ 119 µM)
MIC PA (P. aeruginosa ATCC 9027): 32 µg/mL (≈ 59.3 µM)
MIC CA (C. albicans ATCC 10231): 8 µg/mL (≈ 14.8 µM)

CCCCCCCCCCCCCC(=O)N[C@@H](Cc1c[nH]c2ccccc12)C(=O)N[C@@H](CCCNC(=N)N)C(=O)N[C@@H](CCCNC(=N)N)C(N)=O [compound 98, C14-WRR-NH2] (HELM PEPTIDE1{[CCCCCCCCCCCCCC(=O)[*:2]].W.R.R.[am]}$$$$V2.0)
MIC E1 (E. faecium ATCC 700221): 8 µg/mL (≈ 11 µM)
MIC E2 (K. aerogenes ATCC 13048): 32 µg/mL (≈ 44.1 µM)
tR’ [1]: 47.11 min
MIC K [2]: 64 µg/mL (≈ 88.2 µM)
HC50 [3]: 36.91 (±0.89) µg/mL
MIC S [4]: 2 µg/mL (≈ 2.75 µM)
MIC SA (S. aureus ATCC 25923): 4 µg/mL (≈ 5.51 µM)
MIC A [5]: 128 µg/mL (≈ 176 µM)
MIC PA (P. aeruginosa ATCC 9027): 8 µg/mL (≈ 11 µM)
MIC CA (C. albicans ATCC 10231): 4 µg/mL (≈ 5.51 µM)

CCCCCCCCCCCC(=O)N[C@H](C(=O)N[C@@H](CCCNC(=N)N)C(=O)N[C@@H](CCCNC(=N)N)C(N)=O)C(C)C [compound 93, C12-VRR-NH2] (HELM PEPTIDE1{[CCCCCCCCCCCC(=O)[*:2]].V.R.R.[am]}$$$$V2.0)
MIC E1 (E. faecium ATCC 700221): 16 µg/mL (≈ 26.2 µM)
MIC E2 (K. aerogenes ATCC 13048): 256 µg/mL (≈ 419 µM)
tR’ [1]: 37.17 min
MIC K [2]: >256 (-) µg/mL
HC50 [3]: 246.30 (±14.12) µg/mL
MIC S [4]: 16 µg/mL (≈ 26.2 µM)
MIC SA (S. aureus ATCC 25923): 16 µg/mL (≈ 26.2 µM)
MIC A [5]: 128 µg/mL (≈ 210 µM)
MIC PA (P. aeruginosa ATCC 9027): 32 µg/mL (≈ 52.4 µM)
MIC CA (C. albicans ATCC 10231): 32 µg/mL (≈ 52.4 µM)

CCCCCCCCCCCCCC(=O)N[C@@H](CCCNC(=N)N)C(=O)N[C@@H](CCCNC(=N)N)C(=O)N[C@@H](CCCNC(=N)N)C(N)=O [compound 82, C14-RRR-NH2] (HELM PEPTIDE1{[CCCCCCCCCCCCCC(=O)[*:2]].R.R.R.[am]}$$$$V2.0)
MIC E1 (E. faecium ATCC 700221): 8 µg/mL (≈ 11.5 µM)
MIC E2 (K. aerogenes ATCC 13048): 128 µg/mL (≈ 184 µM)
tR’ [1]: 36.76 min
MIC K [2]: 128 µg/mL (≈ 184 µM)
HC50 [3]: 211.32 (±9.57) µg/mL
MIC S [4]: 8 µg/mL (≈ 11.5 µM)
MIC SA (S. aureus ATCC 25923): 4 µg/mL (≈ 5.75 µM)
MIC A [5]: 128 µg/mL (≈ 184 µM)
MIC PA (P. aeruginosa ATCC 9027): 32 µg/mL (≈ 46 µM)
MIC CA (C. albicans ATCC 10231): 16 µg/mL (≈ 23 µM)

CCCCCCCCCCCC(=O)N[C@@H](CCSC)C(=O)N[C@@H](CCCNC(=N)N)C(=O)N[C@@H](CCCNC(=N)N)C(N)=O [compound 49, C12-MRR-NH2] (HELM PEPTIDE1{[CCCCCCCCCCCC(=O)[*:2]].M.R.R.[am]}$$$$V2.0)
MIC E1 (E. faecium ATCC 700221): 16 µg/mL (≈ 24.9 µM)
MIC E2 (K. aerogenes ATCC 13048): 256 µg/mL (≈ 398 µM)
tR’ [1]: 37.95 min
MIC K [2]: 256 µg/mL (≈ 398 µM)
HC50 [3]: 206.50 (±9.14) µg/mL
MIC S [4]: 16 µg/mL (≈ 24.9 µM)
MIC SA (S. aureus ATCC 25923): 8 µg/mL (≈ 12.4 µM)
MIC A [5]: 64 µg/mL (≈ 99.5 µM)
MIC PA (P. aeruginosa ATCC 9027): 32 µg/mL (≈ 49.8 µM)
MIC CA (C. albicans ATCC 10231): 32 µg/mL (≈ 49.8 µM)

CCCCCCCCCCCC(=O)N[C@@H](CCCNC(=N)N)C(=O)N[C@@H](CCCNC(=N)N)C(N)=O [compound 3, C12-RR-NH2, reference compound] (HELM PEPTIDE1{[CCCCCCCCCCCC(=O)[*:2]].R.R.[am]}$$$$V2.0)
MIC E1 (E. faecium ATCC 700221): 32 µg/mL (≈ 62.5 µM)
MIC E2 (K. aerogenes ATCC 13048): >256 (-) µg/mL
tR’ (adjusted retention time) [1]: 32.58 min
tR’ [1]: 32.58 min
MIC K [2]: >256 (-) µg/mL
HC50 [3]: >256 µg/mL
MIC S [4]: 32 µg/mL (≈ 62.5 µM)
MIC SA (S. aureus ATCC 25923): 32 µg/mL (≈ 62.5 µM)
MIC A [5]: 256 µg/mL (≈ 500 µM)
MIC PA (P. aeruginosa ATCC 9027): 128 µg/mL (≈ 250 µM)
MIC CA (C. albicans ATCC 10231): 64 µg/mL (≈ 125 µM)
